Patent US5413991A (Ajinomoto Co., Inc., priority 1991, dated 1995)

Experiments:
[1] = test system: chitinase from Candida albicans; assay: Assay for chitinase inhibitory activity, chitinase from Candida albicans (4MBTC fluorescence); type: biochemical, Candida albicans ATCC 10231; conditions: for Chitinase Inhibitory Activity IC50, C. albicans: bis-Tris buffer pH 6.5, 37° C., 30 minutes, substrate 4MBTC; for Inhibitory activity against chitinase derived from Candida albicans, in words: comparison in words
Method: The chitinase from Candida albicans (C. albicans) was prepared by the following method. Firstly, a Sabouraud medium (pH 5.6) composed of 4 g of glucose, 1 g of polypeptone and 100 ml of water was prepared and placed in an Erlenmeyer flask of 500 ml volume. After sterilization at 120° C. for 20 minutes, one platinum loop of slant culture cells of C. albicans ATCC 10231 was inoculated into the medium, and then shake cultured at 37° C. for 2 days to obtain a primary seed mother liquor.
In a second procedure, 1 liter of Sabouraud medium having the same composition as above was prepared. Separately, 100 ml of the medium was added to each of ten 500 ml Erlenmeyer flasks, then the flasks and their contents were sterilized at 120° C. for 20 minutes. Thereafter, 2 ml of the primary seed mother liquor described above was added to each flask. The flask was shaken at 37° C. for 2 days to obtain a secondary seed mother liquor.
In a third procedure, 50 liters of Sabouraud medium having the same composition as described above was prepared and added to a culture tank of 100 liter volume. The tank and its contents were sterilized at 120° C. for 30 minutes. In the tank, 1 liter of the secondary seed mother liquor described above was added. Shake culturing was then conducted at 37° C. for 15 hours. At this stage, the stirring velocity was 140 rpm and the aerial rate was 10 l/min. The resulting culture broth was centrifuged by a sharpless centrifuging machine to recover the cells. The wet weight of the thus obtained cells was 250 g.
The cells were suspended in 800 ml of a buffer for cell homogenization (50 mM bis-Tris, 0.25M saccharose, 1 mM disodium ethylenediaminetetraacetate, pH 6.5). The suspension was twice passed through a Dyno-mill disintegrator (beads: MK-2GX, 0.25-0.5 mm) to disrupt the cells, and the supernatant was recovered. The supernatant was centrifuged at 9000 g for 30 minutes, then further super-centrifuged at 152,000 g for an hour. The supernatant thereof was recovered, and was concentrated to about one-fifth of the volume by ultrafiltration (Toyo Ultrafilter UP-20), having an excluding limiting molecular weight of 20,000. The concentrate was used as the crude chitinase solution from Candida albicans in the assay described in procedure (ii) below.
(§1) In a 20 ml vial bottle, 50 μl of the chitinase solution from Candida albicans prepared as described above,s 50 μl of 100 μg/ml aqueous 4-methylumbelliferyl β-D-N,N',N"-triacetyl-chitotrioside (hereinafterabbreviated as 4MBTC, SIGMA Co.), 75 μl of 50 mM bis-Tris buffer (pH 6.5) and 25 μl of 0.1N acetic acid were added and mixed. The reaction was carried out at 37° C. for 30 minutes. As a blank, the reaction was carried out in an identical manner, substituting 50 mM bis-Tris buffer (pH 6.5) for the enzyme solution. After the reaction, sufficient 0.5M glycine-sodium hydroxide buffer (pH 10.4) was added to make the total volume 5 ml. Then, the fluorescent intensity was determined with a fluorophotometer (manufactured by Hitachi Ltd., MPF-4). The excited wavelength was 350 nm, and the fluorescent wavelength was 400 nm. Chitinase activity was determined using the difference in the fluorescent intensity between the read-out data from the sample containing the enzyme and the blank read-out data.
(§2) In determining the inhibitory activity of AJI9463A, AJI9463B, AJI9463C, and the partially hydrolyzed disaccharides thereof, each compound was dissolved in 0.1N acetic acid, and 25 μl of the compound solution was substituted for the 25 μl of 0.1N acetic acid in the reaction system described above. Further, in determining the inhibitory activity against the chitinases of baker's yeast and Trichoderma sp., the assay was performed by changing the buffer in the reaction system described above from 50 mM bis-Tris buffer (pH 6.5) to 0.1M citrate buffer (pH 3.0) and MclLvanine buffer (pH 5.2), respectively.

[2] = target: chitinase from Trichoderma sp. (Chitinase T-1); assay: Assay for chitinase inhibitory activity, chitinase from Trichoderma sp.; type: biochemical; conditions: McIlvaine buffer pH 5.2, substrate 4MBTC
Method: The chitinase from Trichoderma sp. was provided for use in the assay described in procedure (ii) below by diluting commercially available Chitinase T-1 (manufactured by Asahi Industry Co., Ltd.) with MclIvanine buffer (obtained by adding 0.2M aqueous disodium hydrogen phosphate to 0.1M aqueous citric acid and adjusting the pH to 5.2) to a concentration of 50 μg/ml.
as §1, §2

[3] = test system: silkworm-derived chitinase; conditions: background statement; cited from earlier work
[4] = test system: endo-type chitinase of insects; conditions: background statement; cited from earlier work
fungi-derived chitinase = conditions: background statement; cited from earlier work
[5] = target: T1, chitinase from baker's yeast (S cerevisiae) (Saccharomyces cerevisiae, UniProt P29029); assay: Assay for chitinase inhibitory activity, chitinase from baker's yeast; type: biochemical; conditions: 0.1M citrate buffer pH 3.0, substrate 4MBTC
T1 construct: was shaken at 30° C. for 2 hours at 120 spm to extract the enzyme; host or cells: commercial baker's yeast, digitonin extract
T1 sequence (P29029 21-562): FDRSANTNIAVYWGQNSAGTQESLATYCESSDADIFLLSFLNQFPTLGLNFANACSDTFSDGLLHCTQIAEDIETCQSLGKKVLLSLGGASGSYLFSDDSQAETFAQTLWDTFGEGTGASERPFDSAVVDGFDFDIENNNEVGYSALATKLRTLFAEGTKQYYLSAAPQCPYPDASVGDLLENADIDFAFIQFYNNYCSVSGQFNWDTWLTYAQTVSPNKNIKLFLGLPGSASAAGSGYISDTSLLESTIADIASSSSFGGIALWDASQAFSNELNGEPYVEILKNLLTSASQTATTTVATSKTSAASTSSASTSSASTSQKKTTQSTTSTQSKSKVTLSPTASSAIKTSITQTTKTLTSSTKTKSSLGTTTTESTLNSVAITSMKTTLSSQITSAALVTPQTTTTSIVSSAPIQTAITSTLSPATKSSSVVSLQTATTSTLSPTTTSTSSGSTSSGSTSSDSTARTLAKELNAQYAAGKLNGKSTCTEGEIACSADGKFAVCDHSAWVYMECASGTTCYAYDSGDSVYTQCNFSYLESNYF
Method: The chitinase from baker's yeast (S cerevisiae) was prepared by the following method. Firstly, 400 g of baker's yeast (manufactured by Kanegafuchi Chemical Industry Co., Ltd.) was suspended in buffer for enzyme extraction (0.1% digitonin: manufactured by Wako Pure Chemical Industry Co., Ltd.), 0.1% β-mercaptoethanol and 2 liters of 25 mM MES (manufactured by Nakarai Chemical Co., Ltd.), and was shaken at 30° C. for 2 hours at 120 spm to extract the enzyme. The extract was centrifuged at 12,000 g for 10 minutes and the supernatant was recovered. The supernatant was concentrated to about one-fifth of the volume by ultrafiltration (UP-20). After 800 ml of sodium citrate buffer (obtained by adding 0.15M aqueous sodium citrate to 0.15M aqueous citric acid, and adjusting the pH to 3.0) was added to the concentrate, the precipitates were removed by centrifugation (0° C., 12,000 g, 10 minutes). The supernatant was again concentrated by ultrafiltration (UP-20) to about 80 ml. The resulting concentrate was used as the chitinase from baker's yeast in the assay described in procedure (ii) below.
as §1, §2

[6] = test system: Candida albicans (ATCC 10231); assay: Effects on growth of Candida albicans; type: cell-based; conditions: 50 μg/ml, Sabouraud dextrose medium, 37° C., 6 and 9 hours after inoculation, microscopic observation
Method: Samples of Candida albicans (ATCC 10231) were precultured in Sabouraud dextrose medium. Each of seven large test tubes containing 5 ml of Sabouraud dextrose medium were charged, respectively, with 50 μg/ml of AJI9463A, AJI9463B, AJI9463C, and the partially hydrolyzed disaccharides thereof and medium containing no active inhibitory component. The preculture was then inoculated into the media in the test tubes. The test tubes were capped with a cotton stopper, and incubated at 37° C. at 120 spm. The change in the subsequent culture with respect to time was observed. Observations were made microscopically, sampling the medium at the time when the culture started, and 6 and 9 hours thereafter.

[7] = test system: mouse ascites breast cancer cells FM3A; assay: Cytotoxicity, mouse ascites breast cancer cells FM3A; type: cell-based; conditions: 1 mg/ml, 37° C., 4 days, microscopic observation
Method: (§3) Six separate samples of mouse ascites breast cancer cells FM3A, inoculated in Dulbeccol's modified MEM medium supplemented with 10% calf fetal serum (1×10^5 counts/ml) were prepared, and AJI9463A, AJI9463B, AJI9463C and each of the partially hydrolyzed disaccharides thereof were respectively added thereto, resulting in a concentration of 1 mg/ml. Stationary culture was conducted at 37° C. for 4 days. The cultured mouse ascites breast cancer cells FM3A were observed microscopically.

[8] = test system: human leukemia cells K562; assay: Cytotoxicity, human leukemia cells K562; type: cell-based; conditions: 1 mg/ml, 37° C., 4 days, microscopic observation
Method: as §3, with “human leukemia” for “mouse ascites breast cancer”, “K562,” for “FM3A,”, “RPMI 1640” for “Dulbeccol's modified MEM”, “human leukemia cell K562 culture was” for “cultured mouse ascites breast cancer cells FM3A were”

Row | SMILES | Chitinase Inhibitory Activity IC50, C. albicans [1] [µg/mL] | Chitinase Inhibitory Activity IC50, Trichoderma sp. [2] [µg/mL] | Inhibition of silkworm-derived chitinase [3] | Inhibition of endo-type chitinase of insects [4] | Inhibitory activity against fungi-derived chitinase (fungi-derived chitinase) | IC50 [5] [µM] | Inhibitory activity against chitinase derived from Candida albicans, in words [1] | Fungal growth of Candida albicans [6] | Growth inhibition of mouse ascites breast cancer cells FM3A (cytotoxicity) [7] | Growth inhibition of human leukemia cells K562 (cytotoxicity) [8]
1 | CC(=O)N[C@H]1[C@H](O[C@H]2[C@@H](O)[C@@H](NC(C)=O)[C@H](O[C@H]3[C@H](O)[C@H]4N=C(N(C)C)O[C@H]4[C@@H]3CO)O[C@@H]2CO)O[C@H](CO)[C@@H](O)[C@H]1O [Allosamidin, allosamidin] | 6.2 | 0.8 | inhibitors | strongly inhibit | weak inhibitory activity | – | – | – | – | –
2 | COC[C@H]1O[C@@H](O[C@H]2[C@@H](O)[C@@H](NC(C)=O)[C@H](OC3C(O)C4N=C(N(C)C)OC4C3CO)O[C@@H]2CO)[C@H](NC(C)=O)[C@H](O)[C@@H]1O (some centres unmarked) [Methylallosamidin, methylallosamidin, reference compound] | 8.8 | 1.2 | inhibitors | strongly inhibit | weak inhibitory activity | 58.4 | – | – | – | –
3 | CNC1=NC2C(O)C(O[C@@H]3O[C@H](CO)[C@@H](O)[C@@H](O)[C@H]3NC(C)=O)C(CO)C2O1 (some centres unmarked) | 0.9 | > 50.0 | – | – | – | > 493 | – | – | – | –
4 | CC(=O)N[C@H]1[C@H](OC2C(O)C3N=C(N(C)C)OC3C2CO)O[C@H](CO)[C@@H](O)[C@@H]1O (some centres unmarked) | 1.3 | > 50.0 | – | – | – | > 477 | – | – | – | –
5 | CNC1=NC2C(O)C(O[C@@H]3O[C@H](CO)[C@@H](O)[C@H](O)[C@H]3NC(C)=O)C(CO)C2O1 (some centres unmarked) | 1.0 | > 50.0 | – | – | – | > 493 | – | – | – | –
6 | COC[C@H]1O[C@@H](O[C@H]2[C@H](O)[C@@H](NC(C)=O)[C@H](OC3C(O)C4N=C(N(C)C)OC4C3CO)O[C@@H]2CO)[C@H](NC(C)=O)[C@H](O)[C@@H]1O (some centres unmarked) [AJI9463C] | 3.4 | 0.8 | – | – | – | 49.2 | superior to that of allosamidin and methylallosamidin | somewhat inhibited | No growth inhibition was noted at all | No growth inhibition was noted at all
7 | CNC1=NC2C(O)C(O[C@@H]3O[C@H](CO)[C@@H](O[C@@H]4O[C@H](COC)[C@@H](O)[C@@H](O)[C@H]4NC(C)=O)[C@@H](O)[C@H]3NC(C)=O)C(CO)C2O1 (some centres unmarked) [AJI9463A] | 0.6 | 1.3 | – | – | – | 0.642 | most potent inhibitory activity of any known compound | somewhat inhibited | No growth inhibition was noted at all | No growth inhibition was noted at all
8 | CNC1=NC2C(O)C(O[C@@H]3O[C@H](CO)[C@@H](O[C@@H]4O[C@H](COC)[C@@H](O)[C@@H](O)[C@H]4NC(C)=O)[C@H](O)[C@H]3NC(C)=O)C(CO)C2O1 (some centres unmarked) [AJI9463B] | 0.8 | 1.6 | – | – | – | 0.803 | superior to that of allosamidin and methylallosamidin | somewhat inhibited | No growth inhibition was noted at all | No growth inhibition was noted at all
